Data reported in publication PMC11278298, “Generation, Characterisation and Identification of Bioactive Peptides from Mesopelagic Fish Protein Hydrolysates Using In Silico and In Vitro Approaches” (Marine Drugs, 2024).
Residues, ends and D or L forms follow the SMILES beside them.

Tests used:
COX-2 = test system: COX-2; parameters: method as in PMID 20188172; conditions: known COX-2 selective inhibitors; read-out: COX2- IC50; cited from earlier work
COX-1 = test system: COX-1; parameters: method as in PMID 20188172; conditions: known COX-1 selective inhibitors from Chinese herbs; cited from earlier work
LOX-1 expression = test system: LOX-1 expression; parameters: method as in PMID 30955604; conditions: peptides from amaranth; cited from earlier work
ovine COX-1 enzyme = target: T1, ovine COX-1 enzyme (Ovis aries, UniProt P05979); assay: COX colourimetric inhibition screening assay, COX-1; format: biochemical; conditions: synthesised peptide
T1 construct: purchased Cayman Chemicals 701050
T1 sequence (P05979 25-600): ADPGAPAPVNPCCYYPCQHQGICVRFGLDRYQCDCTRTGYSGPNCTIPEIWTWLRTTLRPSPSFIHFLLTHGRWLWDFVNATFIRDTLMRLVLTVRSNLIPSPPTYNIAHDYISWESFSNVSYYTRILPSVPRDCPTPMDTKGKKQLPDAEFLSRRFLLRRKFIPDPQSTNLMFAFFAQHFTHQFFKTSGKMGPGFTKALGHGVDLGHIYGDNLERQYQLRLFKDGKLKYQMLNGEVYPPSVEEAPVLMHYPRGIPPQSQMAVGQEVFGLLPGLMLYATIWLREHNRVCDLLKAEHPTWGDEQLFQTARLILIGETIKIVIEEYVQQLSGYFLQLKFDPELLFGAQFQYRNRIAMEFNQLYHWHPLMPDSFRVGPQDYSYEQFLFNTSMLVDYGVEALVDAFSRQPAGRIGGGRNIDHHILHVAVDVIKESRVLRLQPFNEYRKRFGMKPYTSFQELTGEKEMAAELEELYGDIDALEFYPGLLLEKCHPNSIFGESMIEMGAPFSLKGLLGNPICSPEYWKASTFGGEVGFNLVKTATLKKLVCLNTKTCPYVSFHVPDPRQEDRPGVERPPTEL
Experimental: The anti-pain and anti-inflammatory bioactivities of generated mesopelagic hydrolysates and permeates were assessed using a cyclooxygenase inhibition assay, targeting human COX-2 and ovine COX-1 enzymes, as described previously. COX (Prostaglandin H synthase) inhibition plays a positive role in the prevention of a variety of health conditions, and COX inhibitors have documented analgesic, anti-inflammatory, and antipyretic properties. They can influence pain and inflammation related to diseases like osteoarthritis and rheumatoid arthritis, musculoskeletal injury, migraines, and cancer. COX inhibitors are indicated for mild pain and are usually prescribed for short durations of time to patients. […] COX inhibition was calculated using the following Equation:% COX inhibition = (Corrected 100% initial activity − Corrected Inhibitor activity)/(Corrected 100% initial activity) × 100(1) where Corrected 100% initial activity was the absorbance value recorded for wells containing 150 µL 1× assay Buffer, 10 µL of either COX-1 or COX-2 enzyme and 10 µL of solvent (DMSO) minus the absorbance value recorded for the background well containing 160 µL of 1× Assay Buffer and 10 µL of solvent.

[1] = test system: nitric oxide (NO) production; parameters: method as in doi:10.48022/mbl.2109.09005; conditions: peptide from mollusc abalone; cited from earlier work
human COX-2 enzyme = target: T2, human COX-2 enzyme (Homo sapiens, UniProt P35354); assay: COX colourimetric inhibition screening assay, COX-2; format: biochemical; conditions: for IC50 / inhibition at 1000 µg/mL: synthesised peptide; for inhibition at 1000 µg/mL: 1 mg/mL
T2 construct: purchased Cayman Chemicals 701050
T2 sequence (P35354 18-604): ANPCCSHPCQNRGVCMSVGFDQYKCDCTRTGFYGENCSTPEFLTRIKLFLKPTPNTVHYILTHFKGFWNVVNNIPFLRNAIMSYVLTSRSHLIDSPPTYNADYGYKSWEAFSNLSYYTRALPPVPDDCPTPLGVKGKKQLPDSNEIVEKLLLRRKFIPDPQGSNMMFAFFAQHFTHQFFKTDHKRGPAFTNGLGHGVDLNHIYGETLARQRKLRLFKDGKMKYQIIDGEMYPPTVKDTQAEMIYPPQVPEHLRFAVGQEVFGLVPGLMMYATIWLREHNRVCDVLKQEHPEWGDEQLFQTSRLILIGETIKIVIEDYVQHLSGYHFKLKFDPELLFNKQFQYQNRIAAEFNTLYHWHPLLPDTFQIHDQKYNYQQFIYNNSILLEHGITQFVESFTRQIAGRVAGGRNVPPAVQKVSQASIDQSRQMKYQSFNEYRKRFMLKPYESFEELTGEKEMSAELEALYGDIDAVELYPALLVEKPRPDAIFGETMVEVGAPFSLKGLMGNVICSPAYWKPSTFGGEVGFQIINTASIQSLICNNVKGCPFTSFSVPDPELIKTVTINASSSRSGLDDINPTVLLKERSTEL
Experimental: The anti-pain and anti-inflammatory bioactivities of generated mesopelagic hydrolysates and permeates were assessed using a cyclooxygenase inhibition assay, targeting human COX-2 and ovine COX-1 enzymes, as described previously. […] They can influence pain and inflammation related to diseases like osteoarthritis and rheumatoid arthritis, musculoskeletal injury, migraines, and cancer. COX inhibitors are indicated for mild pain and are usually prescribed for short durations of time to patients.

MAGL enzyme = target: T3, MAGL enzyme (Homo sapiens, UniProt Q99685); assay: Monoacylglycerol lipase inhibition screening assay; format: biochemical
T3 construct: purchased Cayman
T3 sequence (Q99685 1-303): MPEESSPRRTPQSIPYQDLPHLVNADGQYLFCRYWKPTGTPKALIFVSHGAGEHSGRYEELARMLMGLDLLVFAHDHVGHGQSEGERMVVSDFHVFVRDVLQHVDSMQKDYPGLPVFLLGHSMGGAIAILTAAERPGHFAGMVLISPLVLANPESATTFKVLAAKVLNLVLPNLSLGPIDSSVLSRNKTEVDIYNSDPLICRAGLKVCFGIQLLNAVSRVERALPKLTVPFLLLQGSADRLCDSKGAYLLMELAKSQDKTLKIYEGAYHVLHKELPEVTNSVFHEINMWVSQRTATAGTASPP
Source text: Monoacylglycerol lipase (MAGL) is a serine hydrolase that catalyses the hydrolysis of monoglycerides into glycerol and fatty acids and links the endocannabinoid and eicosanoid systems through degradation of 2-arachidaoylglycerol to arachidonic acid, a precursor of prostaglandins and other inflammatory mediators. MAGL inhibitors can have anti-nociceptive, anxiolytic, anti-inflammatory and even anti-cancer benefits. The Cayman’s Monoacylglycerol lipase inhibition screening assay kit was used to measure the inhibition of MAGL by generated hydrolysates and the positive control JZL 195 inhibitor. The assay was performed in compliance with the manufacturer’s instructions. MAGL hydrolyses 4-Nitrophenylacetate, resulting in a yellow product, 4-nitrophenol, that has an absorbance between 405–412 nm. The […] of the yellow colour is indicative of MAGL inhibition. MAGL inhibition was calculated using the following Equation:% MAGL inhibition = (corrected 100% initial activity − corrected inhibitor activity)/(corrected 100% initial activity) × 100(2) where corrected 100% initial activity was the absorbance value recorded for wells containing 150 µL 1× assay Buffer, 10 µL of MAGL enzyme and 10 µL of solvent minus the absorbance value recorded for the background well containing 160 µL of 1× Assay Buffer and 10 µL of solvent (1.4% DMSO in water).

CCC/C=C1\OC(=O)C2=C1CC[C@H]1[C@H]3C=C4C(=O)O/C(=C\CCC)[C@@]4(CC3)[C@@H]21 [Senkyunolide O]
IC50 (COX-2): 5 µM

C[C@H]1[C@H](C)CC[C@]2(C)CC[C@]3(C)C(=CC[C@@H]4[C@@]5(C)CC[C@@H](O)[C@](C)(C(=O)O)[C@@H]5CC[C@]43C)[C@H]12 [β-boswellic acid]
IC50 (COX-1): ~10 µM

CC(=O)O[C@@H]1CC[C@@]2(C)[C@@H](CC[C@]3(C)[C@@H]2C(=O)C=C2[C@@H]4[C@@H](C)[C@H](C)CC[C@]4(C)CC[C@]23C)[C@@]1(C)C(=O)O [Acetyl-11-keto-β-boswellic acid]
IC50 (COX-1): ~10 µM

CC(=O)O[C@@H]1CC[C@@]2(C)[C@@H](CC[C@]3(C)[C@@H]2CC=C2[C@@H]4[C@@H](C)[C@H](C)CC[C@]4(C)CC[C@]23C)[C@@]1(C)C(=O)O [acetyl-β-boswellic acid]
IC50 (COX-1): ~10 µM

HGSEPFGPR [literature anti-inflammatory peptide from amaranth]
effect on LOX-1 expression (LOX-1 expression): reduce LOX-1 expression

FDAFLPM [peptide from Irish M. muelleri Alcalase hydrolysate (Code 23), chemically synthesised]
% COX-1 inhibition (ovine COX-1 enzyme; 0.5 mg/mL): 34.49%

CSCC[C@H](NC(=O)[C@H](Cc1ccccc1)NC(=O)[C@H](CCC(N)=O)NC(=O)[C@H](Cc1ccc(O)cc1)NC(=O)[C@H](C)NC(=O)[C@H](CC(N)=O)NC(=O)[C@H](CC(=O)O)NC(=O)[C@@H](N)CO)C(=O)N[C@@H](CC(C)C)C(=O)N[C@H](C(=O)O)[C@@H](C)O (H-SDNAYQFMLT-OH)
inhibition at 500 µg/mL (ovine COX-1 enzyme; 0.5 mg/mL): 53.7%

CC(=O)O[C@@H]1CC[C@@]2(C)[C@@H](CC[C@]3(C)[C@@H]2CC=C2[C@@H]4CC(C)(C)CC[C@]4(C)CC[C@]23C)[C@@]1(C)C(=O)O [acetyl-α-boswellic acid]
IC50 (COX-1): ~10 µM

PFNEGTFAAS [literature peptide derived from mollusc abalone]
NO IC50 [1]: 54.07 µg/mL

CC(C)C[C@H](NC(=O)[C@H](C)NC(=O)[C@H](Cc1c[nH]c2ccccc12)NC(=O)[C@@H]1CCCN1C(=O)[C@H](CCCNC(=N)N)NC(=O)[C@H](Cc1c[nH]cn1)NC(=O)[C@H](CC(C)C)NC(=O)[C@@H]1CCCN1C(=O)[C@H](CS)NC(=O)[C@@H](N)CCC(N)=O)C(=O)O [QCPLHRPWAL] (H-QCPLHRPWAL-OH)
IC50 (human COX-2 enzyme): 221 µM | inhibition at 1000 µg/mL (human COX-2 enzyme): 53.8% | % COX-1 inhibition (ovine COX-1 enzyme; concentration not printed with the value): 82.90% (+/−0.54)

CC[C@H](C)[C@H](N)C(=O)N[C@@H](C)C(=O)NCC(=O)N[C@@H](Cc1ccccc1)C(=O)N[C@@H](CCC(=O)O)C(=O)N[C@H](C(=O)N[C@@H](Cc1ccccc1)C(=O)N[C@@H](CC(=O)O)C(=O)N[C@@H](Cc1ccccc1)C(=O)N[C@@H](CC(N)=O)C(=O)N[C@@H](CO)C(=O)N[C@@H](CC(C)C)C(=O)N[C@@H](CCC(=O)O)C(=O)N[C@@H](CCC(N)=O)C(=O)N[C@@H](CC(C)C)C(=O)N[C@@H](CS)C(=O)O)[C@@H](C)CC (H-IAGFEIFDFNSLEQLC-OH)
selectivity index (human COX-2 enzyme; COX-1 versus COX-2 IC50 of synthesised peptide): 0.52 | IC50 (human COX-2 enzyme): 366 µM | inhibition at 1000 µg/mL (human COX-2 enzyme): 47.5% | IC50 (ovine COX-1 enzyme): 103 µM | inhibition at 1000 µg/mL (ovine COX-1 enzyme; 1 mg/mL): 53.3%

CC[C@H](C)[C@H](NC(=O)[C@H](CC(C)C)NC(=O)[C@H](C)NC(=O)[C@H](CCC(=O)O)NC(=O)[C@@H]1CCCN1C(=O)[C@H](CC(C)C)NC(=O)CNC(=O)[C@H](CC(C)C)NC(=O)[C@H](C)NC(=O)[C@H](C)NC(=O)[C@@H](NC(=O)[C@H](CC(C)C)NC(=O)[C@H](Cc1ccccc1)NC(=O)[C@@H](NC(=O)[C@H](CS)NC(=O)[C@@H](NC(=O)[C@@H](NC(=O)[C@H](CCC(=O)O)NC(=O)CNC(=O)[C@@H](NC(=O)[C@@H](N)CC(N)=O)C(C)C)C(C)C)C(C)C)[C@@H](C)CC)[C@@H](C)O)C(=O)O (H-NVGEVVCIFLTAALGLPEALI-OH)
IC50 (MAGL enzyme; synthesised peptide): 6.35 µM | inhibition at 500 µg/mL (MAGL enzyme; synthesised peptide, 0.5 mg/mL): 53%

O=C(Oc1ccc([N+](=O)[O-])cc1)N1CCN(Cc2cccc(Oc3ccccc3)c2)CC1 [JZL 195, reference compound]
% MAGL inhibition (MAGL enzyme; positive control at 4.4 µM): 98.16%

RPRYPWRYT [literature anti-inflammatory peptide from amaranth]
effect on LOX-1 expression (LOX-1 expression): reduce LOX-1 expression

C[C@H]1COC2=C1C(=O)C(=O)c1c2ccc2c1CCCC2(C)C [cryptotanshinone]
IC50 (COX-2): 22 µM
